Data from paper PMC7490411 (Signal Transduction and Targeted Therapy, 2020).

What was measured:
Assay in all cases: KINOMEscan
Format in all cases: binding
Details in all cases: 1000 nM
DAPK1 = system: DAPK1
PKNB(M.tuberculosis) = system: PKNB(M.tuberculosis)
[1] = system: ABL1(T315I)-phosphorylated
MRCKA = system: MRCKA
GRK3 = system: GRK3
DRAK2 = system: DRAK2
p38-alpha = system: p38-alpha
CTK = system: CTK
IKK-beta = system: IKK-beta
[2] = system: RPS6KA4(Kin.Dom.2-C-terminal)
FRK = system: FRK
CHEK2 = system: CHEK2
MYO3A = system: MYO3A
YES = system: YES
LZK = system: LZK
PAK6 = system: PAK6
DYRK1A = system: DYRK1A
CDK9 = system: CDK9
PLK1 = system: PLK1
PRKD1 = system: PRKD1

## C=CC(=O)Nc1cc(Nc2cc(-c3cccc(NC(=O)c4cc5c(s4)CCCC5)c3C)cn(C)c2=O)ccc1N1CCN(CC)CC1 [CHMFL-BTK-85]
DAPK1
  Percent Control: 98%
PKNB(M.tuberculosis)
  Percent Control: 88%
[1]
  Percent Control: 100%
MRCKA
  Percent Control: 100%
GRK3
  Percent Control: 100%
DRAK2
  Percent Control: 100%
p38-alpha
  Percent Control: 93%
CTK
  Percent Control: 99%
IKK-beta
  Percent Control: 100%
[2]
  Percent Control: 100%
FRK
  Percent Control: 19%
CHEK2
  Percent Control: 94%
MYO3A
  Percent Control: 93%
YES
  Percent Control: 17%
LZK
  Percent Control: 100%
PAK6
  Percent Control: 100%
DYRK1A
  Percent Control: 100%
CDK9
  Percent Control: 100%
PLK1
  Percent Control: 100%
PRKD1
  Percent Control: 100%
